Series [1] concerns Leishmania infantum MHOM/MA(BE)/67/ITMAP263 intracellular amastigotes. The following applies: for IC50: read-out: L. infantum MHOM/MA(BE)/67/ITMAP263 intracellular amastigotes IC50.
The test system of a further series is MRC-5SV2 cells. As to the kind of experiment: Cytotoxicity assay on MRC-5SV2 cells (resazurin).
Series [2] relates to primary peritoneal mouse macrophages (PMM). Conditions: for IC50: read-out: PMM IC50; for SI (vs PMM): PMM IC50 / L. infantum IC50.
Series [3] concerns L. donovani MHOM/ET/67/L82 intracellular amastigotes. The following applies: read-out: L. donovani MHOM/ET/67/L82 intracellular amastigotes IC50.
Series [4] is described as follows: in vitro. The following applies: PAMPA.
Series [5] can be described thus: in vitro. Conditions: mouse, microsomes, pH 7.4, MLM CLint, mouse liver microsomes.
Series [6] has as its system Leishmania infantum MHOM/MA(BE)/67/ITMAP263 intracellular amastigotes. The series is described as follows: microbe, parasite or virus in culture. Conditions: Macrophage, in Mus musculus.
The subject of series [7] is primary peritoneal mouse macrophages (PMM). As to the kind of experiment: cells. The following applies: Macrophage, read-out: PMM IC50.
The next series is described as follows: physchem. The following applies: HPLC, Ascentis Express RP Amide column, pH 7.4, eLogD, experimental.
In series [8] the test system is Trypanosoma cruzi, Tulahuen CL2, beta-galactosidase strain. The series is described as follows: microbe, parasite or virus in culture. The following applies: MRC5, read-out: T. cruzi Tulahuen C4 (LacZ) IC50.
A short description of series [9]: in vitro. Conditions: human.
The nature of series [10]: in vitro. Conditions: human, microsomes, pH 7.4, HLM CLint, human liver microsomes.
Where [11] appears, read: from L. infantum intracellular amastigote IC50.
Setting [12] is: read-out: L. Inf. pIC50, from L. infantum intracellular amastigote IC50 (converted).
Where [13] appears, read: read-out: L. infantum MHOM/MA(BE)/67/ITMAP263 intracellular amastigotes IC50, intracellular amastigotes.

From PMC8126888 (RSC Medicinal Chemistry, 2020) come the findings set out here.

Read-outs that look alike come from different tables or passages of the source.

For `CN(C)S(=O)(=O)c1cccc(NC(=O)CN2CCCc3cc(F)cc(F)c32)c1` [Compound Z369155588], the IC50 in series [1], in series [2] and in [3] was > 32 µM each time. The CC50 in the series on MRC-5SV2 cells is > 32 µM.

For `CC1Cc2ccccc2N1CC(=O)Nc1ccc(Cl)c(S(=O)(=O)N(C)C)c1` (stereo not drawn) [Compound Z30956600], the IC50 in series [1], in [2] and in series [3] was > 32 µM throughout. Further, in the series with MRC-5SV2 cells, the CC50 was > 32 µM.

`CCCCNS(=O)(=O)c1cccc(NC(=O)c2ccc(C)c(OC)c2)c1` [Compound Z109591588]: the IC50 in series [1], in [2] and in series [3] was > 32 µM each time. For the same molecule, in the series with MRC-5SV2 cells, the CC50 is > 32 µM.

In the case of `CCCOc1cc(C)c(C)cc1S(=O)(=O)NC1CCCC1` [Compound Z1197866122], the “SI (vs PMM)” value in series [2] stood at 1. For the same molecule, the IC50 in series [3] was > 32 µM.

In the case of `CCOC(=O)c1c(C)[nH]c(C(=O)Nc2cccc(S(=O)(=O)N3CCOCC3)c2)c1C` [Compound Z30001211], the IC50 in [1], in series [2] and in [3] was > 32 µM each time. The molecule further displayed a CC50 with MRC-5SV2 cells of 18.1 µM.

For the molecule `CNC(=O)NC(=O)COc1ccc(S(N)(=O)=O)cc1` [Compound Z381095182], the IC50 in series [1], in series [2] and in [3] was > 32 µM each time. In addition, the CC50 in the series on MRC-5SV2 cells was > 32 µM.

For the molecule `COC(=O)c1c(C)[nH]c(C(=O)Nc2cccc(S(=O)(=O)N3CCCC3)c2)c1C` [Compound Z30224758], the IC50 in series [1], in series [2] and in series [3] was > 32 µM each time. The CC50 in the series on MRC-5SV2 cells was > 32 µM.

On to `Cc1ccc(NC(=O)CN(CC(C)C)c2cccc(O)c2)cc1S(=O)(=O)N(C)C` [Compound Z1317978681], for which, in series [1], the “L. Inf. pIC50” value is on record as 4.79. For the same molecule, the IC50 in [1] was 16.1 µM; in series [2], > 32 µM; in [3], 19 µM. The CC50 in the series with MRC-5SV2 cells was 28.4 µM.

Consider `Cc1ccc(NC(=O)CN2CCCCc3ccccc32)cc1S(=O)(=O)N1CCOCC1` [Compound Z1318043362], for which the “L. Inf. pIC50” value in series [1] was found to be 4.78. Besides, the IC50 turned out to be 16.6 µM in [1], 16 µM in [2] and 25.4 µM in series [3]. In addition, the CC50 in the series on MRC-5SV2 cells was > 32 µM.

Consider `Fc1cccc(Cl)c1CNc1ccccc1-n1cccn1` [Compound Z739504072], for which the IC50 in series [1], in series [2] and in series [3] was > 32 µM in each case. Moreover, the CC50 with MRC-5SV2 cells was > 32 µM.

For the molecule `COc1ccccc1S(=O)(=O)N(Cc1ccccc1)Cc1ccccc1` [Compound Z45508946], the “L. Inf. pIC50” value in series [1] is recorded as 6.47. In addition, the results for the IC50 in [1], in series [2] and in series [3] were 0.34 µM, > 32 µM and 1.59 µM, respectively. Besides, in the series on MRC-5SV2 cells, the CC50 was > 32 µM.

In the case of `CCc1c(C(=O)Nc2cc(S(=O)(=O)NC)ccc2C)[nH]c(C)c1C(C)=O` [Compound Z792473370], the “L. Inf. pIC50” value in series [1] stood at 4.67. Besides, the results for the IC50 in [1], in [2] and in series [3] were 21.5 µM, > 32 µM and > 32 µM, respectively. In addition, in the series with MRC-5SV2 cells, the CC50 is > 32 µM.

Take `CCCc1c(C(=O)Nc2cccc(S(=O)(=O)NCc3ccco3)c2)[nH]c(C)c1C(C)=O` [Compound Z966334826]: the “L. Inf. pIC50” value in [1] came to 4.84. For the same molecule, the IC50 in series [1] is 14.5 µM; in series [2] it was > 32 µM; in series [3] it was > 32 µM. In addition, in the series on MRC-5SV2 cells, the CC50 was 12.8 µM.

Regarding `COC(=O)c1c(C)[nH]c(C(=O)Nc2cccc(S(C)(=O)=O)c2)c1C` [Compound Z109929482], the IC50 in [1], in series [2] and in series [3] was > 32 µM throughout. For the same molecule, the CC50 with MRC-5SV2 cells is > 32 µM.

As to `COc1ccc(S(=O)(=O)N(Cc2cccc(F)c2)Cc2cccc(F)c2)cc1OC` [Compound Z220633200], in series [1], the “L. Inf. pIC50” value is 4.99. In addition, the IC50 in [1] was 10.1 µM; in series [2], > 32 µM; in [3], 25.4 µM. The CC50 with MRC-5SV2 cells was > 32 µM.

As to `COc1ccc(S(=O)(=O)N(C)C)cc1NC(=O)C1CCCc2ccccc21` (stereo not drawn) [Compound Z300980532], the IC50 in [1], in [2] and in [3] was > 32 µM each time. In addition, the CC50 in the series with MRC-5SV2 cells is > 32 µM.

For `CC1CCc2ccccc2N1CC(=O)Nc1ccc(Cl)c(S(=O)(=O)N(C)C)c1` (stereo not drawn) [Compound Z46500410], the IC50 in series [1], in series [2] and in series [3] was > 32 µM each time. The CC50 in the series on MRC-5SV2 cells was > 32 µM.

`CC1CCc2ccccc2N1CC(=O)N1CCCc2cc(S(=O)(=O)N(C)C)ccc21` (stereo not drawn) [Compound Z195652240]: the IC50 in series [1], in series [2] and in [3] was > 32 µM in each case. Moreover, the CC50 in the series on MRC-5SV2 cells is > 32 µM.

As for `O=S(=O)(NCc1cccs1)c1ccc2c(c1)CCCC2` [Compound Z45423905], the IC50 in series [1], in series [2] and in [3] was > 32 µM each time. Also, the CC50 in the series on MRC-5SV2 cells turned out to be 27.1 µM.

With `COc1ccc(S(=O)(=O)N(C)C)cc1NC(=O)Cn1c(=O)cnc2ccccc21` [Compound Z19025005], the IC50 in series [1], in [2] and in [3] was > 32 µM each time. For the same molecule, the CC50 in the series with MRC-5SV2 cells is > 32 µM.

Consider `CCCCCOc1cc(C)c(Cl)cc1S(=O)(=O)NCc1ccco1` [Compound Z1172171148], for which the “L. Inf. pIC50” value in [1] (setting [11]) was determined as 5.97. Further, the “SI (vs PMM)” value in [2] was 30. Further, the IC50 in series [3] turned out to be 4.76 µM.

Regarding `CCCCOc1cc(C)c(Cl)cc1S(=O)(=O)NCc1cccs1` [Compound Z1198037505], in [1] (setting [11]), the “L. Inf. pIC50” value amounted to 6.1. The “SI (vs PMM)” value in series [2] came out at 41. In addition, in [3], the IC50 came to 5.38 µM.

In the series “in vitro [4]”, `COc1ccc(C#N)cc1S(=O)(=O)N(Cc1ccc(F)cc1)Cc1ccccn1` [DNDI0003370083] registered a Papp of 11.9 ×10⁻⁶ cm/s. Moreover, the microsomal CLint at 0.5 μM in the series “in vitro [5]” was 1840 µL/min/mg; in the series “in vitro [10]” it was 694 µL/min/mg. Further, the IC50 in series [6] (setting [12]) was 3.16 µM; in series [6] (setting [13]), 3.19 µM; in [7] it was > 64 µM; in series [8], 28.9 µM. Further, the chromatographic logD in “physchem” stood at 3.6. Moreover, in the series “in vitro [9]”, the CC50 at 3 days was > 64 µM.

In the case of `O=C(CN(Cc1ccccc1)S(=O)(=O)c1cc(F)ccc1F)c1ccc(F)cc1` [DNDI0003371157], the Papp in “in vitro [4]” was 0.83 ×10⁻⁶ cm/s. Moreover, the microsomal CLint at 0.5 μM in the series “in vitro [5]” stood at 1380 µL/min/mg; in the series “in vitro [10]”, 756 µL/min/mg. Besides, the IC50 in series [6] (setting [12]), in [6] (setting [13]), in series [7] and in [8] was > 64 µM each time. Further, the chromatographic logD in “physchem” was 4.6. The CC50 at 3 days in “in vitro [9]” was > 64 µM.

Regarding `CCCCOc1cc(C)c(Cl)cc1S(=O)(=O)NCc1cccnc1` [Compound Z969575790], the “L. Inf. pIC50” value in series [1] (setting [11]) amounted to 4.78. The “SI (vs PMM)” value in series [2] amounted to 2. Also, the IC50 in [3] was 25.4 µM.

As for `O=S(=O)(c1ccccc1Br)N(Cc1ccccc1)C(CO)Cc1ccccc1` (stereo not drawn) [DNDI0003369450], the Papp in the series “in vitro [4]” was found to be 2.82 ×10⁻⁶ cm/s. Moreover, the microsomal CLint at 0.5 μM in “in vitro [5]” came out at 2180 µL/min/mg; in “in vitro [10]” it was 1560 µL/min/mg. Also, the IC50 in [6] (setting [12]) was > 64 µM; in series [6] (setting [13]), > 64 µM; in [7], > 64 µM; in series [8] it was 5.54 µM. Further, the chromatographic logD in the series “physchem” was determined as 4.6. The molecule further gave a CC50 at 3 days in “in vitro [9]” of 21.3 µM.
